Laboratory results taken from patent US12150933B2, “IL-8 inihibitors for use in the treatment of some urological disorders” (DOMPÉ FARMACEUTICI S.P.A., priority 2015, dated 2024).
Where a name gives a salt, the structure may show the parent alone.

Assays:
CYP-induced cystitis [1] = assay: Microscopic examination of urinary bladders after chronic preventive administration; assay type: in vivo, rat; details: preventive Mesna treatment
Source text: At the end of the study, the urinary bladders were opened, placed in 10% buffered formalin and stored at room temperature until completion of hystomorphological analysis (see Example 6 below).
At the end of the efficacy study of chronic preventive administration, the urinary bladders were opened, placed in 10% buffered formalin and stored at room temperature until hystomorphological analysis.
Treatment with Compd. […] 1.

[2] = test system: CYP-induced visceral pain; assay: Chronic preventive treatment in CYP-induced visceral pain model in rats; comparison with Mesna; assay type: in vivo, rat; details: 12.5 mg/kg i.p. several times a day for 3 days
Protocol: The effect of chronic preventive administration of Compd. 1 in a visceral pain model induced by repeated administration of cyclophosphamide (CYP) in conscious rats was evaluated.
The oral dose of 7 mg/kg of Compd. 1 was chosen on the basis of previous evaluations. Compd. 1 or vehicle was orally administered to animals twice daily (according to the PK profile of the molecule) for 7 days. Mesna_or vehicle was intraperitoneally administered several times a day for 3 days (when CYP was administered).
Repeated treatment with CYP (75 mg/kg i.p. for 3 times, every 3rd day), induced a strong decrease in withdrawal thresholds to noxious stimulus measured at the level of low abdomen and hind-paws. Nociceptive hypersensitivity was evaluated. In the control group, nociceptive thresholds of abdomen and hind-paws were not altered after the treatment with vehicle.
Behavioral testing was performed at 4 different times: • before CYP administration (in order to acquire basal values) • after CYP administration and before treatment with the tested compound, to verify the pathology (in order to acquire pre-treatment values) • after treatment, 42 or 48 hours from the last administration of Compd. 1 or Mesna.

[3] = test system: CYP-induced visceral pain; assay: Chronic administration in CYP-induced visceral pain in rats (Von Frey withdrawal threshold); assay type: in vivo, rat; details: 40-80 mg/kg p.o., systemic
Protocol: Cyclophosphamide, 75 mg/kg i.p. for 3 times, every 3rd day, was dissolved in distilled water and administered to animals by i.p. route (volume 5 mL/kg). Appropriate weight of Compd. 1 or Compd. 2 was dissolved in saline, all doses of test compounds were administered by oral gavage (volume 2 mL/kg).
On the day of the experiment, each rat was placed individually in a clear plastic testing box with a grid floor and allowed to acclimatize for at least 10 min. Visceral sensitivity in response to mechanical stimuli was determined using Von Frey monofilaments (1-2-4-8-15-26-60-100 g) applied in the lower abdominal area (close to the urinary bladder) and on both hind paws plantar surface (to evaluate referred pain).
Each Von Frey monofilament was applied 5 times at the level of abdomen and 3 times at the level of each paw, in an ascending order of strength at interval of 5 sec. A stimulus-induced response was considered positive when the paw was sharply withdrawn, paw licking occurred, or the animal flinched upon removal of the filament.
• before CYP administration (in order to acquire basal values) • after CYP administration and before treatment, to verify the pathology (in order to acquire pre-treatment values) • after chronic treatment, about 18 hours after last administration of Compd. 1 (in order to acquire post-treatment values). • after chronic treatment, 2 hours after the last administration of Compd. 1 (in order to acquire post-treatment values after chronic+acute administration)
Compd. 1 or vehicle was administered p.o. to animals twice daily (according to the pharmacokinetic profile of the compound) for 6 days, starting from 24 hours after last treatment with CYP, when painful symptoms were well established. Nociceptive hypersensitivity was evaluated about 18 hours after the last administration of Compd. 1 (or vehicle) in order to evaluate the effect of chronic administration, or a further dosage of compound was administered and evaluation carried out 2 hours thereafter, in order to compare with acute protocol, described in Example 1.

[4] = test system: CYP-induced visceral pain; assay: Acute administration in CYP-induced visceral pain in rats (Von Frey mechanical threshold); assay type: in vivo, rat; details: 2 hours after administration, versus pre-treatment
Protocol: Female Sprague Dawley rats (Crl:CD(SD)BR, 250-350 g) from Charles River Italy were used in these experiments. Animals were housed with free access to food and water and maintained on a forced 12 hours light-dark cycle at 22-24° C. for at least one week before the experiments were carried out. The animals were handled according to internationally accepted principles for care of laboratory animals (E.E.C. Council Directive 86/609, […]. 18, 1986). Cyclophosphamide, 75 mg/kg i.p. for 3 times, every 3rd day, was dissolved in distilled water and administered to animals by i.p. route (volume 5 mL/kg). Appropriate weight of Compd. 1 or Compd. 2 was dissolved in saline, all doses of test compounds were administered by oral gavage (volume 2 mL/kg). On the day of the experiment, each rat was placed individually in a clear plastic testing box with a grid floor and allowed to acclimatize for at least 10 min. Visceral sensitivity in response to mechanical stimuli was determined using Von Frey monofilaments (1-2-4-8-15-26-60-100 g) applied in the lower abdominal area (close to the urinary bladder) and on both hind paws plantar surface (to evaluate referred pain). Each Von Frey monofilament was applied 5 times at the level of abdomen and 3 times at the level of each paw, in an ascending order of strength at interval of 5 sec. A stimulus-induced response was considered positive when the paw was sharply withdrawn, paw licking occurred, or the animal flinched upon removal of the filament. Behavioral testing on animals was performed at 3 different times: • before CYP administration (in order to acquire basal values) • after CYP administration, before treatment with the test compound, to verify the pathology (in order to acquire pre-treatment values) • after CYP administration, after treatment (in order to acquire post-treatment values) […] The test was performed in blind. Compd. 1 and Compd. […]

CYP-induced cystitis [5] = assay: Cystometrographic recordings in conscious rats with CYP-induced cystitis; assay type: in vivo, rat; details: 24 hours after CYP 175 mg/kg i.p.
Protocol: Female Sprague Dawley rats (Crl:CD(SD)BR, 250-350 g bw) from Charles River Italy were used in these experiments. Animals were housed with free access to food and water and maintained on a forced 12 hours light-dark cycle at 22-24° C. for at least one week before the experiments were carried out.
Rats, anaesthetized with equithensin solution (2 ml/kg i.p.), were placed in a supine position and an approximately 10 mm midline incision was made in the shaved and cleaned abdominal wall. The urinary bladder was gently freed from adhering tissues, emptied and then cannulated, via an incision at the dome, with a polyethylene cannula (Portex, ID 0.58 mm, OD 0.96 mm), which was permanently sutured with silk thread. The cannula was exteriorized through a subcutaneous tunnel in the retroscapular area, where it was connected with a plastic adapter, in order to avoid the risk of removal by the animal.
For drugs testing, rats were utilized one day after catheter implantation at about 24 hours after administrations CYP.
On the day of the experiment, the rats (fasted overnight) were placed in Bollman's cages; after a stabilization period of 20 min, the free tip of the cannula was connected by a T-shape tube to a pressure transducer and to a peristaltic pump for a continuous infusion of saline solution (room temperature) into the urinary bladder, at the constant rate of 0.05 ml/min. This procedure, termed cystometry, allows the detection of continuous cycles of filling and voiding of the bladder named cystometrograms.
From the cystometrograms acquired by the Biopac System and recorded on a PC the Bladder Volume Capacity (BVC) parameter was calculated as volume capacity, defined as volume (in ml) infused into the bladder and necessary to induce detrusor contraction followed micturition.
Basal BVC was evaluated as mean values from the cystometrograms recorded in 30-60 minutes of time prior the treatment (“BASAL”). Then the bladder infusion was stopped, the animals were treated orally with the test compound or vehicle and, after restarting continuous bladder filling with saline for 4 or 5 hours, BVC values after administration were collected.
BVC parameters were recorded from the cystometrogram over a 4/5 hours period post-dose.

CXCR1/CXCR2 = details: cited from earlier work

SMILES: O=S(=O)(O)CCS [Mesna, 2-mercaptoethene sulfate, reference compound]
- protective effect on the CYP-induced cystitis (CYP-induced cystitis [1]): did not exert any protective effect
- CYP-induced nociceptive behavior [2]: did not produce a reduction of CYP-induced nociceptive behavior

SMILES: NCC1(CC(=O)O)CCCCC1 [gabapentin, reference compound]
- antinociceptive effect [3]: partial maximum antinociceptive effect

SMILES: C[C@@H](C(=O)NS(C)(=O)=O)c1ccc(OS(=O)(=O)C(F)(F)F)cc1 [Compd. 2, R(−)-2-[(4′-trifluoromethanesulfonyloxy)phenyl]-N-methanesulfonyl propionamide]
- mechanical threshold, abdomen and hind paws ([4]; 10 mg/kg p.o.): statistically significant increase in mechanical threshold only in the abdomen
- mechanical threshold, abdomen and hind paws ([4]; 30 mg/kg p.o.): statistically significant increase in mechanical threshold in both the abdomen and paws area
- bladder volume capacity (BVC) (CYP-induced cystitis [5]; 20 mg/kg oral): showed efficacy on BVC
- bladder volume capacity (BVC) (CYP-induced cystitis [5]; 30 mg/kg oral): showed efficacy on BVC
- CXCR1/CXCR2 inhibition (CXCR1/CXCR2): potent and selective dual CXCR1/CXCR2 non-competitive allosteric inhibitor
